Type in all cases: cell-based
Experiment [1] has as its system Lactococcus lactis subsp. cremoris strain MG1363. The experiment in a line: Survival of the lactic acid bacteria during storage at 4° C. (Example 3). The conditions noted are these: for Number of cells per ml: porphyrin compound and aeration, 1% glucose M17, storage at 4° C. As to the method: A laboratory medium, i.e. M17 supplemented with 1% of glucose, is inoculated with Lactococcus lactis subsp. cremoris strain MG1363 in the form of a 1/1000 dilution of a saturated culture. The cultures are then divided into two equal parts, and hemin is added to one of these two cultures to give a final concentration of 10 μg/ml. […] Aliquots of the two cultures are removed regularly during the exponential growth phase in order to monitor viability, rate of growth and pH. After 24 h of growth, the cultures are placed (stored) in a 30° C. incubator without shaking, and aliquots are removed every 24 h in order to monitor the viability of the cells. The Lactococcus lactis subsp. cremoris strain MG1363 was cultured as in the experiment described in Example 2, but the storage, which is carried out 24 h after inoculation, is at 4° C. instead of at 30° C.

Experiment [2] shares this test system. The experiment in a line: Culturing in the presence of protoporphyrin IX (Example 1.2). The note with it: for Concentration of lactic acid / Final pH / Number of viable cells / OD600 nm: 1% glucose, 24 h. Here is the method: A laboratory medium (M17 supplemented with 1% glucose) is inoculated with the Lacrococcus lactis subsp. cremoris strain MG1363 in the form of a 1/1000 dilution of a saturated culture (prepared at 30° C. with no shaking). The inoculated medium contained or not protoporphyrin IX at a final concentration of 10 μg/ml (a 0.5 mg/ml stock solution is prepared by adding 100 mg of protoporphyin IX to 2 ml of 5N NaOH, to which 198 ml of water is then added; the solution is autoclaved at 120° C. for 20 minutes). For bacteria grown in medium containing protoporphyrin IX, cultures were maintained at 30° C. with shaking (250 rotations per minute) in order to ensure oxygenation, or without shaking as a control. Two other control cultures, without protoporphyin IX or without shaking, were grown at 30° C. in parallel. After 24 h of growth, aliquots are removed to measure the optical density at 600 nm (OD600 nm), the number of viable bacteria, the final pH and the concentration of lactate in the medium.

For experiment [3] the test system is unchanged. The experiment in a line: Culturing in the presence of chlorophyllin (Example 1.3). The note with it: cultures in the presence of chlorophyllin, not shaken. Here is the method:
A laboratory medium (M17 supplemented with 1% glucose) is inoculated with the Lactococcus lactis subsp. cremoris strain MG1363 in the form of a 1/1000 dilution of a saturated culture (prepared at 30° C. with no shaking). The inoculated medium contained or not chlorophyllin (a degradation product of chlorophyll) at a final concentration of 10 μg/ml. In order for it to be active, the chlorophyllin was incubated beforehand in an acidic medium and in the presence of traces of iron in order to replace the Cu atom with an Fe atom. This can, for example, be done as follows: a) by incubating a concentrated solution of chlorophyllin for 24 h in a laboratory medium (M17 supplemented with glucose) which was inoculated with 10^6 lactococci per ml and maintained at 30° C. for 24 h. The supernatant containing the chlorophyllin at a concentration of 100 μg/ml is filtered and then added to the culture medium so as to obtain a final concentration of 10 μg/mi. b) by incubating a concentrated solution of chlorophyllin for 24 h in M17 at a pH of between 3 and 5 (acidified with HCl) and at a temperature of 4° C., 30° C. or 60° C. The pH is then readjusted to 7. […] The pH is then readjusted to 7. […]

Where [4] appears, read: with protoporphyrin IX 10 μg/ml and aeration.
[5] abbreviates: with protoporphyrin IX 10 μg/ml but without aeration.

The record followed here is patent US20160075991A1, “Process for Preparing Starter Cultures of Lactic Acid Bacteria” (INSTITUT NATIONAL DE LA RECHERCHE, priority 1998, published 2016).

In the case of `C=CC1=C(C)c2cc3[nH]c(cc4nc(cc5[nH]c(cc1n2)c(C)c5CCC(=O)O)C(CCC(=O)O)=C4C)c(C)c3C=C` [protoporphyrin IX], the survival rate in experiment [1] (after 2 months at 4° C., cultured with porphyrin compound under aeration) is approximately 1%. The “Number of cells per ml” value in experiment [1] (0 days after culture) was 6.4 × 10^9 cells per ml; in experiment [1] (1 day after culture), 6.2 × 10^9 cells per ml; in experiment [1] (2 days after culture), 5.6 × 10^9 cells per ml; in experiment [1] (3 days after culture), 5.4 × 10^9 cells per ml; in experiment [1] (7 days after culture), 4.0 × 10^9 cells per ml; in experiment [1] (8 days after culture), 2.8 × 10^9 cells per ml. For the same compound, the “Number of cells per ml” value was 1.9 × 10^9 cells per ml in experiment [1] (9 days after culture); 3.9 × 10^8 cells per ml in experiment [1] (10 days after culture); 1.7 × 10^8 cells per ml in experiment [1] (13 days after culture); 6.0 × 10^7 cells per ml in experiment [1] (15 days after culture); 5.9 × 10^7 cells per ml in experiment [1] (22 days after culture); 5.4 × 10^7 cells per ml in experiment [1] (28 days after culture). The “Number of cells per ml” value is 5.4 × 10^7 cells per ml in experiment [1] (36 days after culture), 5.3 × 10^7 cells per ml in experiment [1] (43 days after culture), 4.8 × 10^7 cells per ml in experiment [1] (50 days after culture) and 5.3 × 10^7 cells per ml in experiment [1] (57 days after culture). For the same compound, in experiment [2] (cells cultured in the presence of protoporphyrin IX and oxygen), the “production of lactic acid as share of the quantity of sugar added” value is “less than 40%”. Also, in experiment [2] (protoporphyrin IX and oxygen), the “pH of the culture (remains stable)” value was “approximately 5.5”. Also, the “Concentration of lactic acid” value in experiment [2] (setting [4]) stood at 1.9 g/L; in experiment [2] (setting [5]) it was 8.2 g/L. Further, the “Final pH” value in experiment [2] (setting [4]) is 5.49; in experiment [2] (setting [5]) it was 4.53. In addition, the “Number of viable cells” value in experiment [2] (setting [4]) is 6.9 ×10^9; in experiment [2] (setting [5]), 2.7 ×10^9. The results for the OD600 nm in experiment [2] (setting [4]) and in experiment [2] (setting [5]) were 4.6 and 2.5, respectively.
chlorophyllin: in experiment [3], the “variation of OD600 nm and pH from the control” value is “No significant variation from the control”.
